Patent publication US20240279298A1 (BEIJING TUO JIE BIOPHARMACEUTICAL CO. LTD., priority 2021, published 2024)
≈ marks a conversion by molar mass, not a printed value. Where a SMILES comes first, the peptide text is derived from it. [ ]: non-standard residue; d: D form. Aib = CC(C)(N)C(=O)O

Experiments:
[1] = biological target: human glucose-dependent insulinotropic polypeptide receptor (GIPR) (human) (UniProt P48546); assay: cell-based or functional assay
[2] = biological target: T1, human glucagon receptor (GCGR) (Homo sapiens, UniProt P47871); assay: Agonist activity assay for GCGR (cAMP HTRF); assay type: cell-based; details: normalized by the activity of the native glucagon
T1 construct: expressed in transfected cells
Method: The activation of GCGR by related compounds will stimulate the formation of cyclic adenosine monophosphate (cAMP) in cells. Thus, the receptor activity can be monitored by cAMP production in proper cells expressing the receptor. […] The cells were passaged at least once for subsequent tests. Before testing, the cells were trypsinized, centrifuged, washed once, and resuspended in serum-free DMEM/F12 medium. The cell density was adjusted, and the cells were plated in a 96-well plate at a density of 2,500 cells/5 μL/well. […] The mixture was mixed well by moderate vibration, and incubated for 1 hour at room temperature away from light.

[3] = Maximum solubility in phosphate buffer pH 7.4; assay type: physicochemical; details: phosphate buffer pH 7.4, room temperature
[4] = biological target: T2, human GLP-1R (Homo sapiens, UniProt P43220); assay: Agonist activity assay for GLP-1R (cAMP HTRF); assay type: cell-based
T2 construct: expressed in transfected cells
Method: (§1) The activation of GCGR by related compounds will stimulate the formation of cyclic adenosine monophosphate (cAMP) in cells. Thus, the receptor activity can be monitored by cAMP production in proper cells expressing the receptor.
(§2) Agonist activity assay for GCGR: Cryopreserved stable CHO-K1/GCGR/CRE-Luc cells were taken from a liquid nitrogen tank, thawed in a 37° C. water bath, resuspended in DMEM/F12 medium (Sigma Cat #D8437), centrifuged, and seeded into T75 culture flasks. The cells were passaged at least once for subsequent tests. Before testing, the cells were trypsinized, centrifuged, washed once, and resuspended in serum-free DMEM/F12 medium. The cell density was adjusted, and the cells were plated in a 96-well plate at a density of 2,500 cells/5 μL/well. A 1×buffer solution in Cisbio-cAMP-Gs Dynamic kit was prepared, and IBMX was added at a final concentration of 0.5 mM. 5 μL of polypeptide serially diluted by buffer was added into each well, and the plate was shaken gently for mixing and incubated for 30 minutes at 37° C. cAMP-d2 and Anti-cAMP-Eu^3+-Cryptate were 20-fold diluted with cAMP Lysis and detection buffer respectively and mixed well. 5 μL of diluted cAMP-d2 solution and 5 μL of diluted Anti-cAMP-Eu^3+-Cryptate solution were sequentially added into each well. The mixture was mixed well by moderate vibration, and incubated for 1 hour at room temperature away from light.
Agonist activity assay for GLP-1R: The method differed from the method described above for the agonist activity assay for GCGR in that a stable CHO-GLP-1R cell line was used.

[5] = biological target: T3, human GIPR (Homo sapiens, UniProt P48546); assay: Agonist activity assay for GIPR (cAMP HTRF); assay type: cell-based; details: for EC50: CHO-K1/GIPR cell line, cAMP
T3 construct: expressed in transfected cells
T3 sequence (P48546 22-466): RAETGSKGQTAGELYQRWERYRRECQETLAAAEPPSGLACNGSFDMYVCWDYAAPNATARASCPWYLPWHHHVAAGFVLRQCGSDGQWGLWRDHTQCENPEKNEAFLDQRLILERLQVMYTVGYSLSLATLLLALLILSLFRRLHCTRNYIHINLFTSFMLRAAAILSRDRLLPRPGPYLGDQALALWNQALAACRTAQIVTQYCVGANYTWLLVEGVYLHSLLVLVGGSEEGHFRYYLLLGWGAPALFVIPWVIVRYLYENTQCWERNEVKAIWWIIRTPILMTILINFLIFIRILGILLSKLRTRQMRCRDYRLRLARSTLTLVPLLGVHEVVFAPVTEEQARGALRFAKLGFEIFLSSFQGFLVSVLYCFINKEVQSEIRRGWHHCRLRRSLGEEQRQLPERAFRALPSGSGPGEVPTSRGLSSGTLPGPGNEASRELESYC
Method: as §1, §2
Agonist activity assay for GIPR: The method differed from the method described above for the agonist activity assay for GCGR in that a stable CHO-K1/GIPR cell line was used, and the cell density was 3,000 cells/5 μL/well.

[6] = Chemical stability in phosphate buffer (UPLC purity); assay type: physicochemical; details: phosphate buffer pH 7.4, 1 mg/mL; for Purity Day 0: day 0 (normalization)
Method: The compound purity was calculated by the percentage area of the main peak in the chromatograms relative to the total area of all integrated peaks, normalized by the purity of the sample on day 0 for the purity.

T1 sequence (P47871 26-477): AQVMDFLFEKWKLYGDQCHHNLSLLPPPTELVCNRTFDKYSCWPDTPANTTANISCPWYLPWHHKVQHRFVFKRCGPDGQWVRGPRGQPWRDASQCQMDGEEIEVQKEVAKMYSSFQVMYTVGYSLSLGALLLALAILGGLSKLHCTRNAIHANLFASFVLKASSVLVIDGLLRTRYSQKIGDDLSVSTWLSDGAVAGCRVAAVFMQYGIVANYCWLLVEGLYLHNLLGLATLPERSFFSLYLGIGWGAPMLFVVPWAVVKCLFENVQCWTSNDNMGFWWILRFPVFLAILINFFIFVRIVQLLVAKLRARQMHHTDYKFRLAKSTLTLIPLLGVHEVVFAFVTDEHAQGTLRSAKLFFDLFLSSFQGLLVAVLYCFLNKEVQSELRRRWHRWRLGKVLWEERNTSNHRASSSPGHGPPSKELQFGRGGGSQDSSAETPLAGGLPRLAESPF
T2 sequence (P43220 24-463): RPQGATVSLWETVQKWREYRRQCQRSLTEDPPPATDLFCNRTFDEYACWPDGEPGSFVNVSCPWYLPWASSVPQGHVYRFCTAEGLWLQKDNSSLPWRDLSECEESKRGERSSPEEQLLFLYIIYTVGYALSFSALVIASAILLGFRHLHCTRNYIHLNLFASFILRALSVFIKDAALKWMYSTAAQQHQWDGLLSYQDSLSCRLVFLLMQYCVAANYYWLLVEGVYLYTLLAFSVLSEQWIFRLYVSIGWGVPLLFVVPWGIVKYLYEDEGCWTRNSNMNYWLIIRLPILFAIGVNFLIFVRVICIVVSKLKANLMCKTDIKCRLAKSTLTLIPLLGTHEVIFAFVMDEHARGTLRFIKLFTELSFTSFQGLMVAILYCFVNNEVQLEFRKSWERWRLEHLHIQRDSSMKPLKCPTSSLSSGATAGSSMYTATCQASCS

GIPR % Activity relative to native GIP, cAMP HTRF [1] [%]	GIPR EC50 (nM), cAMP HTRF in CHO-K1/GIPR cells [1] [nM]	Relative activity [2] [%]	solubility at 5 min [3] [µg/mL]	GLP-1R % Activity relative to native GLP-1 [4] [%]	EC50 [5] [nM]	GIPR % Activity relative to native GIP [5] [%]	Purity Day 7 ([6]; 4° C.) [%]	Purity Day 14 ([6]; 4° C.) [%]	Purity Day 21 ([6]; 4° C.) [%]	Purity Day 28 ([6]; 4° C.) [%]	Purity Day 7 ([6]; 25° C.) [%]	Purity Day 14 ([6]; 25° C.) [%]	Purity Day 21 ([6]; 25° C.) [%]	Purity Day 28 ([6]; 25° C.) [%]	Purity Day 0 [6] [%]	Compound
100	0.0652															human GIP (1-42) (from UniProt P09681 52-93) (ligand)
		207	> 2490	0.291	> 100	<0.0700										CC[C@H](C)[C@H](NC(=O)[C@H](CC(=O)O)NC(=O)[C@H](CC(C)C)NC(=O)[C@H](Cc1ccc(O)cc1)NC(=O)[C@H](CCCCN)NC(=O)[C@H](CO)NC(=O)[C@H](Cc1ccc(O)cc1)NC(=O)[C@H](CC(=O)O)NC(=O)[C@H](CO)NC(=O)[C@@H](NC(=O)[C@H](Cc1ccccc1)NC(=O)[C@@H](NC(=O)CNC(=O)[C@H](CCC(N)=O)NC(=O)[C@H](CO)NC(=O)[C@@H](N)Cc1c[nH]cn1)[C@@H](C)O)[C@@H](C)O)C(=O)NC(C)(C)C(=O)N[C@@H](CCCNC(=N)N)C(=O)N[C@@H](C)C(=O)N[C@@H](CCC(N)=O)C(=O)N[C@@H](CCC(=O)O)C(=O)N[C@@H](Cc1ccccc1)C(=O)N[C@H](C(=O)N[C@@H](CCC(N)=O)C(=O)N[C@@H](Cc1c[nH]c2ccccc12)C(=O)N[C@@H](CC(C)C)C(=O)N[C@@H](CCC(=O)O)C(=O)N[C@@H](CO)C(=O)N[C@H](C(=O)O)[C@@H](C)O)C(C)C [Compound 42] (H-HSQGTFTSDYSKYLDI[Aib]RAQEFVQWLEST-OH)
		268	> 4790	0.212	> 100	<0.0700	97.24	97.45	95.71	94.88	94.64	93.86	91.35	91.85	100.00	CC(C)C[C@H](NC(=O)[C@H](Cc1c[nH]c2ccccc12)NC(=O)[C@H](CCC(N)=O)NC(=O)[C@@H](NC(=O)[C@H](Cc1ccccc1)NC(=O)[C@H](CCC(=O)O)NC(=O)[C@H](CCC(N)=O)NC(=O)[C@H](C)NC(=O)[C@H](CCCNC(=N)N)NC(=O)C(C)(C)NC(=O)[C@@H](NC(=O)[C@H](CC(=O)O)NC(=O)[C@H](CC(C)C)NC(=O)[C@H](Cc1ccc(O)cc1)NC(=O)[C@H](CCCCN)NC(=O)[C@H](CO)NC(=O)[C@H](Cc1ccc(O)cc1)NC(=O)[C@H](CC(=O)O)NC(=O)[C@H](CO)NC(=O)[C@@H](NC(=O)[C@H](Cc1ccccc1)NC(=O)[C@@H](NC(=O)CNC(=O)[C@H](CCC(N)=O)NC(=O)[C@H](CO)NC(=O)[C@@H](N)Cc1c[nH]cn1)[C@@H](C)O)[C@@H](C)O)[C@@H](C)O)C(C)C)C(=O)N[C@@H](CCC(=O)O)C(=O)N[C@@H](CO)C(=O)N[C@H](C(=O)O)[C@@H](C)O [Compound 39] (H-HSQGTFTSDYSKYLDT[Aib]RAQEFVQWLEST-OH)
		333	2560 (≈ 751 µM)	0.231	> 100	<0.0700	98.77	93.35	89.45	89.12	82.25	68.13	49.04	33.47	100.00	CC(C)C[C@H](NC(=O)[C@H](Cc1c[nH]c2ccccc12)NC(=O)[C@H](CCC(N)=O)NC(=O)[C@@H](NC(=O)[C@H](Cc1ccccc1)NC(=O)[C@H](CCC(=O)O)NC(=O)[C@H](CCC(N)=O)NC(=O)[C@H](C)NC(=O)[C@H](CCCNC(=N)N)NC(=O)C(C)(C)NC(=O)[C@@H](NC(=O)[C@H](CC(=O)O)NC(=O)[C@H](CC(C)C)NC(=O)[C@H](Cc1ccc(O)cc1)NC(=O)[C@H](CCCCN)NC(=O)[C@H](CO)NC(=O)[C@H](Cc1ccc(O)cc1)NC(=O)[C@H](CC(=O)O)NC(=O)[C@H](CO)NC(=O)[C@@H](NC(=O)[C@H](Cc1ccccc1)NC(=O)[C@@H](NC(=O)CNC(=O)[C@H](CCC(N)=O)NC(=O)[C@H](CO)NC(=O)[C@@H](N)Cc1c[nH]cn1)[C@@H](C)O)[C@@H](C)O)C(C)C)C(C)C)C(=O)N[C@@H](CCC(=O)O)C(=O)N[C@@H](CO)C(=O)N[C@H](C(=O)O)[C@@H](C)O [Compound 41] (H-HSQGTFTSDYSKYLDV[Aib]RAQEFVQWLEST-OH)
